{"source": "paper PMC4136845", "about": "“Evaluation of Antimalarial Activity and Toxicity of a New Primaquine Prodrug” (PLoS ONE, 2014)", "key": {"[1]": {"assay": "Partition coefficient (log P) by HPLC method, OECD guideline", "description": "A Waters Alliance HPLC system equipped with a UV-Vis 2487 detector was employed. The chromatographic analysis was performed on a Symmetry C18 HPLC column (4.6 mm×250 mm, 5 µm particle size) and the mobile phase was methanol:water (70∶30), with detection at 256 nm. A flow rate of 1.0 mL/min was used and 50-µL samples were injected into the chromatographic system. The run time was approximately 15 min. The analytical curve was constructed on the basis of the retention time of the standards (purchased from Sigma Aldrich, NJ, USA) butanone, acetanilide, phenol, phenacetin, benzene, toluene, chlorobenzene and thymol, dissolved in mobile phase at a concentration of 50 µg/mL. The substances were analyzed in triplicate and the average retention time for each standard was used. The capacity factor (k) was obtained by the equation [20]: k = (tR - t0) /t0, where tR is the retention time of the test substance and t0 the dead-time. The log k values were correlated with the partition coefficients of the standards for construction of the analytical curve. […] The coefficient of determination (r^2) was also calculated to evaluate the linearity of the analytical curve."}, "[2]": {"system": "P. gallinaceum", "assay": "Inhibition of P. gallinaceum sporogony in Aedes fluviatilis mosquitoes fed on infected, treated chickens", "type": "in vivo", "conditions": "single oral dose 1.0 mg/kg (Phe-Ala-PQ: 0.19 mg/kg PQ); for Mean oocyts ±SD/ in times 4 h: chicken, mosquitoes fed 4 h after treatment", "description": "One-week-old chicks (Gallus gallus domesticus) previously inoculated with 10^6 RBC infected with P. gallinaceum, had their parasitemia monitoried daily, by examining Giemsa-stained thin blood smears; they were used to feed the mosquitoes when reaching 2.8 – 3.8%. The A. fluviatilis mosquitoes were kept for 24 h without sugar in their diet, to improve their ability to take the blood meal from chickens. For each compound the same infected chicken was offered twice to feed clean mosquitoes (30 female mosquitoes per group), before treatment, (group 0 h). Drug treatment was immediately performed by gavage and the treated chicken was offered again to blood-feed another group of mosquitoes (test group) 4 h after treatment of the chicken with the drug. […] In each experiment, another non-treated P. gallinaceum-infected chick was used twice (time 0 h and 4 h later) to feed clean mosquitoes, serving as an internal control.\nSeven days after the blood meal, the mosquitoes were dissected and their midgut was removed under a stereomicroscope (100x), stained with 0.5% mercurochrome, and examined under a light microscope (40x) for the oocyst count. […] Two criteria were used to evaluate drug activity: the total number of infected mosquitoes and the mean number of oocysts, based on the examination of 20 mosquitoes in each group."}, "[3]": {"system": "monkey kidney cell line (BGM)", "assay": "In vitro cytotoxicity, MTT assay, BGM cells", "conditions": "MTT, 24 h incubation", "description": "(§1) The HepG2 (ATCC HB-8065) was originally received from the New University of Lisbon, Portugal, and BGM received as a gift from the Federal University of Minas Gerais and originally purchased from Rio de Janeiro Cell Bank (BCRJ 0049). When confluent, the cells were washed with RPMI culture medium, then trypsinized, distributed in a flat-bottom 96-well plate (5×10^3 cells/well), and incubated for 18 h at 37°C for cell adherence as described elsewhere. The compound (20 µL) was added to each well at various concentrations (1-1000 µg/mL) and the plate incubated for 24 h in a 5% CO2 atmosphere at 37°C. MTT [3-(4,5-dimethylthiazol-2-yl)-2,5-diphenyltetrazolium bromide] (5 mg/mL; 20 µL/well) was added to evaluate mitochondrial viability, and the plates were incubated again for 3 h, under the same culture conditions. The supernatant was carefully removed, and 100 µL of DMSO were added with mixing to dissolve the formazan crystals formed. The optical density was determined at 570 and 630 nm (background) (SpectraMax 340PC 384, Molecular Devices). Cell viability was expressed as the percentage of the control absorbance of the untreated cells after subtracting the appropriate background. The minimum lethal dose for 50% of the cells (MLD50) was determined as previously described."}, "[4]": {"system": "human hepatoma cell line (HepG2)", "assay": "In vitro cytotoxicity, MTT assay, HepG2 cells", "conditions": "MTT, 24 h incubation", "description": "as §1"}, "[5]": {"system": "male Wistar rats", "assay": "Biochemical analysis of serum of rats treated with multiple doses", "conditions": "rat serum; gavage four times a day for 4 days; PQ diphosphate 2.44 mg/kg free base, Phe-Ala-PQ 9.00 mg/kg; mean", "description": "(§2) The biochemical, hematological and histopathological analyses were carried out in male Wistar rats (weighing 200–250 g). They were housed in wire cages, five animals per cage, with free access to food and water. The study protocol was approved by The Research Ethics Committee of the School of Pharmaceutical Sciences, UNESP, Araraquara (process 06/2009). […] After treatment with the drugs, the animals were decapitated for collection of blood and samples of liver and kidneys (preserved in 10% formaldehyde).\n(§3) In biochemical analysis, aspartate aminotransferase (AST), alanine aminotransferase (ALT), gamma-glutamyltransferase (GGT), bilirubin, creatinine and urea kits were purchased from LabTest Diagnostica SA (Lagoa Santa,Minas Gerais, Brazil). Alkaline phosphatase (ALP) was assayed by the conversion of p-nitrophenyl phosphate to p-nitrophenol in a kinetic reaction, measured with a spectrophotometer at 405 nm. To determine the level of methemoglobin in relation to oxyhemoglobin, we used the method described by Naoum and collaborators. The blood was hemolyzed and the hemoglobin stabilized in 60 mM phosphate buffer, pH 6.8. The levels of methemoglobin and oxyhemoglobin were determined by spectrophotometric absorption at 630 and 540 nm. The total and differential white blood cell (WBC) counts were performed using a Neubauer chamber and blood smears, respectively. The hematocrit was determined using conventional method by microcapillary centrifugation."}, "[6]": {"system": "male Wistar rats", "assay": "Hemogram of rats treated with multiple doses", "conditions": "gavage four times a day for 4 days, PQ 2.44 mg/kg free base, Phe-Ala-PQ 9.00 mg/kg, mean (CI 95)", "description": "as §2, §3"}, "[7]": {"system": "male Wistar rats", "assay": "Histopathological evaluation of rat liver and kidney", "conditions": "multiple doses", "description": "as §2\nThe liver and kidney were removed from each rat to perform the histopathological evaluation. Tissue pieces were fixed in 10% formaldehyde and embedded in paraffin. Each organ was then cut into 4-µm thick sections and subjected to standard hematoxylin/eosin staining. Hepatic glycogen staining in sections was carried out using the standard periodic acid-Schiff (PAS) reaction, followed by hematoxylin counterstaining, and the periportal and centrilobular regions of the liver were analyzed according to Thoolen et al.. Five periportal regions and five centrilobular regions were photographed in each animal, for a total of 300 photographs, and these images were adjusted using Pixelmator software (2.2.1). Nuclear hepatocyte glycogen levels were classified as: A- PAS<50% of cells, B- PAS≥50% of cells and C- PAS-negative. Additionally, liver sections were examined for the occurrence of microvesicular fatty changes, as well as the kidney sections for inflammatory infiltration, reduction of Bowman's spaces and changes in renal tubules. Statistical analysis was performed in Graphpad Prism 5.0b. Data for each organ analysis were expressed qualitatively and quantitatively, and normal distribution was verified (D'Agostin and Person). t-tests and chi-square tests were performed, and non-parametric data were evaluated using the Mann-Whitney or Kruskal-Wallis test for pair wise comparisons of groups. The significance level was set at 5%."}, "[8]": {"assay": "in vitro", "conditions": "human", "quoted_text": "(§4) The hemolytic rate was calculated using 0.05% saponin as the positive control for hemolysis of human RBC, which was considered 100% [24], [25]. The diagnosis of G6PD deficiency was performed using a technique based on the principle that hemoglobin oxidized to methemoglobin, by the action of sodium nitrite, is catalyzed by an enzyme, in the presence of methylene blue [26]. […] All participants signed a written informed consent before blood collection. The consent was approved by the Ethics Committee of CEPEM."}, "[9]": {"conditions": "cited from earlier work"}, "[10]": {"assay": "In vitro hemolysis assay", "conditions": "human", "quoted_text": "as §4"}}, "note": "Values joined by “and” are separate entries in the source; they are usually repeats but may differ in a detail not shown here. Identical values can stand only once. Marks after values point to notes of the source that are not given here.", "data": [{"smiles": "COc1cc(NC(C)CCCN)c2ncccc2c1", "note": "(centres unmarked) [PQ, Primaquine]", "values": [{"measurement": "chromatographic logP", "setting": "[1]", "value": 2.1}, {"measurement": "Mean oocyts ±SD/ in times 4 h", "setting": "[2]", "value": 2.1}, {"measurement": "Mean oocyts ±SD/ in times 4 h", "setting": "[2]; listed as PQ diphosphate", "value": "2.1±4.3"}, {"measurement": "Reduction in oocyst number, %", "setting": "[2]; 4 h vs 0 h", "value": 96, "unit": "%"}, {"measurement": "Sporogony inhibition, %", "setting": "[2]; 4 h vs 0 h", "value": 50, "unit": "%"}, {"measurement": "MDL50 (Mean±SD) BGM", "setting": "[3]", "value": "263 µg/mL and 263 ± 4 µg/mL"}, {"measurement": "MDL50 (Mean±SD) HepG2", "setting": "[4]", "value": "180 µg/mL and 180 ± 24 µg/mL"}, {"measurement": "ALP", "setting": "[5]", "value": 125.6, "unit": "U/L"}, {"measurement": "ALT", "setting": "[5]", "value": "91.81 ^a U/L"}, {"measurement": "AST", "setting": "[5]", "value": "64.99 ^a U/L"}, {"measurement": "Creatinine", "setting": "[5]", "value": "0.986 mg/dL and 0.986 ^a mg/dL"}, {"measurement": "Direct bilirubin", "setting": "[5]", "value": 0.228, "unit": "mg/dL"}, {"measurement": "GGT", "setting": "[5]", "value": "22.88 ^a U/L"}, {"measurement": "Total bilirubin", "setting": "[5]", "value": "0.797 mg/dL and 0.797 ^a mg/dL"}, {"measurement": "Urea", "setting": "[5]", "value": 18.51, "unit": "mg/dL"}, {"measurement": "Eosinophils Absolute (No. cells)", "setting": "[6]", "value": "97 (43–151) No. cells"}, {"measurement": "Eosinophils Relative (%)", "setting": "[6]", "value": "2.10 (0.77–3.42) %"}, {"measurement": "Hematocrit", "setting": "[6]", "value": "46 (44–48) %"}, {"measurement": "Leukocytes", "setting": "[6]", "value": "4840 (3973–5706) /mm^3"}, {"measurement": "Lymphocytes Absolute (No. cells)", "setting": "[6]", "value": "4123 (3200–5046) No. cells"}, {"measurement": "Lymphocytes Relative (%)", "setting": "[6]", "value": "83.9 ^a (78.9–88.9) %"}, {"measurement": "Methemoglobin", "setting": "[6]", "value": "3.89 (3.39–4.40) %"}, {"measurement": "Monocytes Absolute (No. cells)", "setting": "[6]", "value": "96 ^a (52–140) No. cells"}, {"measurement": "Monocytes Relative (%)", "setting": "[6]", "value": "2.30 ^a (0.86–3.73) %"}, {"measurement": "Neutrophils Band Absolute (No. cells)", "setting": "[6]", "value": "6 (0–19) No. cells"}, {"measurement": "Neutrophils Band Relative (%)", "setting": "[6]", "value": "0.11 (0.00–0.36) %"}, {"measurement": "Neutrophils Segmented Absolute (No. cells)", "setting": "[6]", "value": "516 ^a (403–629) No. cells"}, {"measurement": "Neutrophils Segmented Relative (%)", "setting": "[6]", "value": "11.6 ^a (8.15–15.0) %"}, {"measurement": "Liver glycogen: positive cells (<50%), periportal region", "setting": "[7]", "value": "decrease"}, {"measurement": "Liver glycogen: PAS-positive cells (total), periportal region", "setting": "[7]; compared to the control group", "value": "more PAS-positive cells (total) compared to the control group"}, {"measurement": "Histopathological analysis of the kidney", "setting": "[7]; hematoxylin/eosin", "value": "normal structures, with no alteration in the glomeruli and renal tubules"}, {"measurement": "hemolysis at 31 µg/mL", "setting": "[8]", "value": 0, "unit": "%"}, {"measurement": "hemolysis at 62 µg/mL", "setting": "[8]", "value": 0, "unit": "%"}, {"measurement": "hemolysis at 1000 µg/mL", "setting": "[8]", "value": 100, "unit": "%"}, {"measurement": "plasma half-life", "setting": "[9]", "value": "ca. 6 h"}, {"measurement": "hemolysis at 125 µg/mL", "setting": "[10]", "value": 0, "unit": "%"}, {"measurement": "hemolysis at 250 µg/mL", "setting": "[10]", "value": 50, "unit": "%"}, {"measurement": "hemolysis at 500 µg/mL", "setting": "[10]", "value": 87.8, "unit": "%"}]}]}
